Test results: ChEMBL document CHEMBL6071123, “Design, synthesis and biological evaluation of 5-amino-1H-pyrazole-4-carboxamide derivatives as pan-FGFR covalent inhibitors” (Eur J Med Chem, 2024)
Activity calls are given as the source filed them. The rule behind the calls is not given here.

What was measured:
[1] = molecular target: Fibroblast growth factor receptor 1 (Homo sapiens, UniProt P11362); assay: biochemical; format: cell-based
Description: Inhibition of N-terminal 6-his tagged human wild type FGFR1 (458 to 765 residues) expressed in Escherichia coli BL21 cells using Tyr 04 peptide as substrate incubated for 1 hr by FRET based Z-lyte assay

[2] = Metabolic stability in human liver microsomes assessed as half life at 1 uM measured upto 45 mins in presence of NADPH by HPLC-MS/MS analysis; format: ADME, Microsome
[3] = Metabolic stability in human liver microsomes assessed as hepatic extraction ratio at 1 uM measured upto 45 mins in presence of NADPH by HPLC-MS/MS analysis; format: ADME, Microsome; settings: read-out: ERH
[4] = Metabolic stability in human liver microsomes assessed as intrinsic clearance at 1 uM measured upto 45 mins in presence of NADPH by HPLC-MS/MS analysis; format: ADME, Microsome; settings: read-out: CLH
[5] = Metabolic stability in human liver microsomes assessed as hepatic clearance at 1 uM measured upto 45 mins in presence of NADPH by HPLC-MS/MS analysis; format: ADME, Microsome
NCI-H520 = assay: Antiproliferative activity against human NCI-H520 cells measured after 3 days by CCK-8 method; format: functional, cell-based; settings: NCI-H520, 72 h
SNU-16 [6] = assay: Antiproliferative activity against human SNU-16 cells measured after 3 days by CCK-8 method; format: functional, cell-based; settings: SNU-16, 72 h
[7] = Antiproliferative activity against human KATO III stomach cancer cell line measured after 3 days by CCK-8 method; format: functional, cell-based; settings: 72 h
[8] = Induction of apoptosis in human KATO III stomach cancer cell line assessed as necrotic cells at 10 nM incubated for 48 hrs by annexin V-FITC/PI staining based flow cytometry analysis (reference value: 0.072%); format: functional
[9] = Induction of apoptosis in human KATO III stomach cancer cell line assessed as viable cells at 100 nM incubated for 48 hrs by annexin V-FITC/PI staining based flow cytometry analysis (reference value: 90.1%); format: functional; settings: read-out: Activity
BaF3 [10] = assay: Inhibition of AKT phosphorylation in mouse BaF3 cells harbouring FGFR2 V564F mutant measured after 6 hrs by Western blot analysis; format: cell-based; settings: dose 0-1000 nM
[11] = Induction of apoptosis in human KATO III stomach cancer cell line assessed as early apoptotic cells at 1000 nM incubated for 48 hrs by annexin V-FITC/PI staining based flow cytometry analysis (reference value: 3.40%); format: functional
[12] = Induction of apoptosis in human KATO III stomach cancer cell line assessed as viable cells at 10 nM incubated for 48 hrs by annexin V-FITC/PI staining based flow cytometry analysis (reference value: 90.1%); format: functional; settings: read-out: Activity
[13] = molecular target: Fibroblast growth factor receptor 2 (Mus musculus) (UniProt P21803); assay: Inhibition of FGFR2 phosphorylation in mouse BaF3 cells harbouring FGFR2 V564F mutant measured after 6 hrs by Western blot analysis; format: cell-based; settings: dose 0-1000 nM
Chain of Fibroblast growth factor receptor 2 (Mus musculus) (P21803 whole entry): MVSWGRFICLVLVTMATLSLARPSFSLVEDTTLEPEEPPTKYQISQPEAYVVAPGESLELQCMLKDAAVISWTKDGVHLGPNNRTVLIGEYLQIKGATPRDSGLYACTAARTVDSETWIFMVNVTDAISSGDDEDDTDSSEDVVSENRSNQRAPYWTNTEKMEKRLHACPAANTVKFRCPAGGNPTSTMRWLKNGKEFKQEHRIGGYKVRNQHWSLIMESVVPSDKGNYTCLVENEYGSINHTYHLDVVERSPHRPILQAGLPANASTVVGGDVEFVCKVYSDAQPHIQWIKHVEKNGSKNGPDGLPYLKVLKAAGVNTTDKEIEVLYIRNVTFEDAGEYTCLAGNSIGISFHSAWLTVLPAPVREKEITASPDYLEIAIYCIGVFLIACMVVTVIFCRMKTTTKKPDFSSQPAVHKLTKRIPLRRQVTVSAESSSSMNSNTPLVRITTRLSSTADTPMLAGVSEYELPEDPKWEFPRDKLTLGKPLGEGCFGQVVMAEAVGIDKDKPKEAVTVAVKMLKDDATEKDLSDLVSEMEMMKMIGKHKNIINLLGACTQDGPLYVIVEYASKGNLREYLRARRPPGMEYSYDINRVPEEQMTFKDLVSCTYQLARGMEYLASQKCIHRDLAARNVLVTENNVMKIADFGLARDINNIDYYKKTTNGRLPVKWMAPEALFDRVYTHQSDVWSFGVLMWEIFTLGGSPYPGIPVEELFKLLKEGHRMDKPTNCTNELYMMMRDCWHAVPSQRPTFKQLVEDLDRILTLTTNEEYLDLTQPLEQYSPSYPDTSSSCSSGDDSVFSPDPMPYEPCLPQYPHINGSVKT

[14] = Induction of cell cycle arrest in human KATO III stomach cancer cell line assessed as accumulation of cells at G1 phase at 1000 nM measured after 24 hrs by PI staining based flow cytometry analysis (reference value: 29.8%); format: functional
[15] = molecular target: T1, Fibroblast growth factor receptor 2 (Homo sapiens, UniProt P21802); assay: Inhibition of FGFR2 phosphorylation in human SNU-16 measured after 2 hrs by Western blot analysis; format: cell-based; settings: dose 0-300 nM
Target sequence in this assay (P21802 22-821 limits assumed): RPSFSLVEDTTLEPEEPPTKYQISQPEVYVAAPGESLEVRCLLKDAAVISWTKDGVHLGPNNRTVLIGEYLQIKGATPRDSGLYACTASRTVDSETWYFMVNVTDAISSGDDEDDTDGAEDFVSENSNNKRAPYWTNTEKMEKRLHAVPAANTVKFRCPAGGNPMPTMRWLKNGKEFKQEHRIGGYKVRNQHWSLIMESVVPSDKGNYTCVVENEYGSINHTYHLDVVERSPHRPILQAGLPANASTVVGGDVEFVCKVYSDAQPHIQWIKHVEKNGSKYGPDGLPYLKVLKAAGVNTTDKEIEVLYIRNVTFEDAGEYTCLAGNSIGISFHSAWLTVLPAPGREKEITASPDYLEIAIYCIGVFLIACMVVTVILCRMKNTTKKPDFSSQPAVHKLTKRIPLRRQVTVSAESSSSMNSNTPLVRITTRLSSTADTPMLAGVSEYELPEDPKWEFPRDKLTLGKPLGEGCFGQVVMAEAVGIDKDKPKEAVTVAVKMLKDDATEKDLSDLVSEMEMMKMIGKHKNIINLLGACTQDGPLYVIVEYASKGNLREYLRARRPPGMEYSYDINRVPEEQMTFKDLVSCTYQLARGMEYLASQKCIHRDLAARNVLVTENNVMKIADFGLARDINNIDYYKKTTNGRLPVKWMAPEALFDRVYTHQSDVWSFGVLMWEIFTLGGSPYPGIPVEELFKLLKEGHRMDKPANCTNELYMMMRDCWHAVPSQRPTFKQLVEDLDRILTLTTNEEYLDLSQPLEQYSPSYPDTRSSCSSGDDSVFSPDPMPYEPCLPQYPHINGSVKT

[16] = Induction of apoptosis in human KATO III stomach cancer cell line assessed as late apoptotic cells at 10 nM incubated for 48 hrs by annexin V-FITC/PI staining based flow cytometry analysis (reference value: 6.39%); format: functional
BaF3 [17] = assay: Effect on FGFR2 protein level in mouse BaF3 cells harbouring FGFR2 V564F mutant at 0 to 1000 nM measured after 6 hrs by Western blot analysis; format: functional, cell-based; settings: dose 0-1000 nM
[18] = Induction of apoptosis in human KATO III stomach cancer cell line assessed as early apoptotic cells at 100 nM incubated for 48 hrs by annexin V-FITC/PI staining based flow cytometry analysis (reference value: 3.40%); format: functional
SNU-16 [19] = assay: Inhibition of AKT phosphorylation in human SNU-16 measured after 2 hrs by Western blot analysis; format: cell-based; settings: dose 0-300 nM
BaF3 [20] = assay: Effect on AKT protein level in mouse BaF3 cells harbouring FGFR2 V564F mutant at 0 to 1000 nM measured after 6 hrs by Western blot analysis; format: functional, cell-based; settings: dose 0-1000 nM
[21] = Induction of cell cycle arrest in human KATO III stomach cancer cell line assessed as accumulation of cells at G1 phase at 100 nM measured after 24 hrs by PI staining based flow cytometry analysis (reference value: 29.8%); format: functional
[22] = Induction of apoptosis in human KATO III stomach cancer cell line assessed as necrotic cells at 1000 nM incubated for 48 hrs by annexin V-FITC/PI staining based flow cytometry analysis (reference value: 0.072%); format: functional
KATO III = assay: Induction of cell cycle arrest in human KATO III stomach cancer cell line assessed as accumulation of cells at G1 phase measured after 24 hrs by PI staining based flow cytometry analysis; format: functional; settings: dose 10-1000 nM
[23] = molecular target: Fibroblast growth factor receptor 2 (Homo sapiens, UniProt P21802, V564F); assay: Inhibition of FGFR2 V564F mutant (unknown origin) using (Poly (4:1 Glu, Tyr) peptide as substrate by ADP-Glo kinase assay
Chain of Fibroblast growth factor receptor 2 (Homo sapiens, UniProt P21802, V564F) (P21802 22-821 V564F limits assumed): as the sequence (P21802 22-821 limits assumed) above, with V543F counted along it

[24] = Induction of cell cycle arrest in human KATO III stomach cancer cell line assessed as accumulation of cells at G2 phase at 1000 nM measured after 24 hrs by PI staining based flow cytometry analysis (reference value: 42.5%); format: functional
[25] = Induction of cell cycle arrest in human KATO III stomach cancer cell line assessed as accumulation of cells at S phase at 10 nM measured after 24 hrs by PI staining based flow cytometry analysis (reference value: 28.3%); format: functional
[26] = molecular target: Fibroblast growth factor receptor 3 (Homo sapiens, UniProt P22607); assay: Inhibition of FGFR3 (unknown origin) using Tyr 04 peptide as substrate incubated for 1 hr by FRET based Z-lyte assay
Chain of Fibroblast growth factor receptor 3 (P22607 whole entry): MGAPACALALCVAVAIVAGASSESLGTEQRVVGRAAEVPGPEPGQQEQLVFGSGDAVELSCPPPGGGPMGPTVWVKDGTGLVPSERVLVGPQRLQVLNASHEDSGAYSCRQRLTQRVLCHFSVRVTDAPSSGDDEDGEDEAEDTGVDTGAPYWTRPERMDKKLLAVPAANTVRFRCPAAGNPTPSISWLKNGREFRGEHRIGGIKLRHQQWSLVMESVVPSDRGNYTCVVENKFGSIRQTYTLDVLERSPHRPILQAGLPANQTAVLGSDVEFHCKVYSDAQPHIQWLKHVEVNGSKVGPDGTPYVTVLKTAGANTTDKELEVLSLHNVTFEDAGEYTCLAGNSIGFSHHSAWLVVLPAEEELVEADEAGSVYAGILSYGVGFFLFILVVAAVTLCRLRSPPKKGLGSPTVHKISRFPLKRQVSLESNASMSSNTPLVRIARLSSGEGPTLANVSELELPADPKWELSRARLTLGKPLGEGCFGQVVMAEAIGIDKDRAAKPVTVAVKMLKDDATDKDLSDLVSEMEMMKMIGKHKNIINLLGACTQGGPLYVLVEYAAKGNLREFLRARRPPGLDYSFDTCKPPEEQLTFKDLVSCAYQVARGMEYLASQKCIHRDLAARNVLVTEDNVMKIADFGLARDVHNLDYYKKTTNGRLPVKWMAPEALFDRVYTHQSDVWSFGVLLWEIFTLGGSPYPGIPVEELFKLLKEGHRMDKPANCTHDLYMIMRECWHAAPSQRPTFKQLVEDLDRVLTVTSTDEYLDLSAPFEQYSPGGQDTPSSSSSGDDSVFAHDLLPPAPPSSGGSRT

[27] = Induction of apoptosis in human KATO III stomach cancer cell line assessed as late apoptotic cells at 100 nM incubated for 48 hrs by annexin V-FITC/PI staining based flow cytometry analysis (reference value: 6.39%); format: functional
BaF3 [28] = assay: Antiproliferative activity against mouse BaF3 cells harbouring FGFR2 V564F mutant assessed as reduction in cell viability incubated for 72 hrs by CCK-8 method; format: functional, cell-based; settings: BaF3, 72 h
[29] = Induction of cell cycle arrest in human KATO III stomach cancer cell line assessed as accumulation of cells at G1 phase at 10 nM measured after 24 hrs by PI staining based flow cytometry analysis (reference value: 29.8%); format: functional
[30] = Induction of cell cycle arrest in human KATO III stomach cancer cell line assessed as accumulation of cells at S phase at 100 nM measured after 24 hrs by PI staining based flow cytometry analysis (reference value: 28.3%); format: functional
[31] = molecular target: T1, Fibroblast growth factor receptor 2; assay: biochemical; format: cell-based
Target sequence in this assay (P21802 whole entry): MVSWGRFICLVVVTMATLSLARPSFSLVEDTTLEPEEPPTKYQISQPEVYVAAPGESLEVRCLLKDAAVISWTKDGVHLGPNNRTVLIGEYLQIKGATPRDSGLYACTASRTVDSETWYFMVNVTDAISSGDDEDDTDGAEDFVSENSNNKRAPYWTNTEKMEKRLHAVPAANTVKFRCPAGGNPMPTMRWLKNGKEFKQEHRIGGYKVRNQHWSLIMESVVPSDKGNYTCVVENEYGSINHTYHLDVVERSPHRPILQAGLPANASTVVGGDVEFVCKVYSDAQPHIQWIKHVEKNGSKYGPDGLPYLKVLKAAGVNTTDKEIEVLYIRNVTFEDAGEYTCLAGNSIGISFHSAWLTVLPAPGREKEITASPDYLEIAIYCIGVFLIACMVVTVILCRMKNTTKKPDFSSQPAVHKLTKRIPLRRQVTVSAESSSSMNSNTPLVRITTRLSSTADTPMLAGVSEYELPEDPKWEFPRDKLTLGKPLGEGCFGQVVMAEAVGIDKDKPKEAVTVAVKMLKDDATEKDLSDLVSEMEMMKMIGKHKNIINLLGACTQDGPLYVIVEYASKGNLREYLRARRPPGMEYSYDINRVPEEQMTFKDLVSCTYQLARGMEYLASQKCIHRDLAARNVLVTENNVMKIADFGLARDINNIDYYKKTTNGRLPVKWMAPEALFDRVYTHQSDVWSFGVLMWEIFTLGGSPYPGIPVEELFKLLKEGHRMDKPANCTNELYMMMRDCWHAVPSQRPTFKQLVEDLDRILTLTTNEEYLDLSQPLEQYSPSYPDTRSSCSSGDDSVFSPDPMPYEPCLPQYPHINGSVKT
Description: Inhibition of N-terminal 6-his tagged human wild type FGFR2 (458 to 768 residues) expressed in Escherichia coli BL21 cells using Tyr 04 peptide as substrate incubated for 1 hr by FRET based Z-lyte assay

[32] = Induction of apoptosis in human KATO III stomach cancer cell line assessed as necrotic cells at 100 nM incubated for 48 hrs by annexin V-FITC/PI staining based flow cytometry analysis (reference value: 0.072%); format: functional
[33] = Induction of apoptosis in human KATO III stomach cancer cell line assessed as early apoptotic cells at 10 nM incubated for 48 hrs by annexin V-FITC/PI staining based flow cytometry analysis (reference value: 3.40%); format: functional
[34] = Induction of apoptosis in human KATO III stomach cancer cell line assessed as late apoptotic cells at 1000 nM incubated for 48 hrs by annexin V-FITC/PI staining based flow cytometry analysis (reference value: 6.39%); format: functional
[35] = Induction of apoptosis in human KATO III stomach cancer cell line assessed as viable cells at 1000 nM incubated for 48 hrs by annexin V-FITC/PI staining based flow cytometry analysis (reference value: 90.1%); format: functional; settings: read-out: Activity

Chain of Fibroblast growth factor receptor 1 (P11362 whole entry): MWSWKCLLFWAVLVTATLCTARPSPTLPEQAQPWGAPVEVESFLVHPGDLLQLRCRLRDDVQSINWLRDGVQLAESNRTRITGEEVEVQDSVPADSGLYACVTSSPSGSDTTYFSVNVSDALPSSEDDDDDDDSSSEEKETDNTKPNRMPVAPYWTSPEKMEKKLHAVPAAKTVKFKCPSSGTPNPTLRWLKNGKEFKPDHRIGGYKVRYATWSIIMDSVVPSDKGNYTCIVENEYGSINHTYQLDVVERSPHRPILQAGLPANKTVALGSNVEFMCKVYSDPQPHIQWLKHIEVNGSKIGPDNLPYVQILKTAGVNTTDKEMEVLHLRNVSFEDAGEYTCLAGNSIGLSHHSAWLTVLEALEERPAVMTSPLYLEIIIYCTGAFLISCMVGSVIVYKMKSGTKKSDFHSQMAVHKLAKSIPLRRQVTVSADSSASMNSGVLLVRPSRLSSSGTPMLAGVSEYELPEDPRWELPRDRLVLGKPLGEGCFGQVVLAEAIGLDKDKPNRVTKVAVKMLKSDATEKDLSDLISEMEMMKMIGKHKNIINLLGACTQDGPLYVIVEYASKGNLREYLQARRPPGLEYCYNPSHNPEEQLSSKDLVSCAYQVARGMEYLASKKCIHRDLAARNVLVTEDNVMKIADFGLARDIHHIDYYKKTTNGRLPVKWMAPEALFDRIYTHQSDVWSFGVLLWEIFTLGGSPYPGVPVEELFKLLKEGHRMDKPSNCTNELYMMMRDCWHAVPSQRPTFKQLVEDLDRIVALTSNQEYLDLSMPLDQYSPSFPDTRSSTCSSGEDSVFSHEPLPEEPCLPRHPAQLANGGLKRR

SMILES: C=CC(=O)Nc1ccccc1Cn1nc(C#Cc2ccc3[nH]c(C)nc3c2)c(C(N)=O)c1N
- IC50 [1]: 0.88 µM

SMILES: C=CC(=O)Nc1ccc(CCCCn2nc(C#Cc3cc(OC)cc(OC)c3)c3c(N)ncnc32)cc1
- IC50 [1]: 2.34 µM

SMILES: C=CC(=O)Nc1ccc(Cn2nc(C#Cc3cc(OC)cc(OC)c3)c3c(N)ncnc32)cc1
- IC50 [1]: 0.66 µM

SMILES: C=CC(=O)Nc1ccc(Cn2nc(-c3cc4cc(C)cc(OC)c4s3)c3c(N)ncnc32)cc1
- IC50 [1]: 0.023 µM

SMILES: C=CC(=O)Nc1ccc(CCCn2nc(C#Cc3cc(OC)cc(OC)c3)c3c(N)ncnc32)cc1
- IC50 [1]: 1.59 µM

SMILES: O=C(c1ccc(F)cc1)C1CCN(CCn2c(=O)[nH]c3ccccc3c2=O)CC1 [KETANSERIN]
- half-life at 1 µM [2]: 43.7 min
- hepatic extraction ratio at 0.75 h, 1 µM [3]: 0.639
- CLint scaled at 1 µM [4]: 36.7 mL/min/kg
- CLhep predicted at 1 µM [5]: 13.2 mL/min/kg

SMILES: C=CC(=O)Nc1ccc(Cn2nc(-c3ccc4[nH]c(C)nc4c3)c3c(N)ncnc32)cc1
- IC50 [1]: 2 µM

SMILES: C=CC(=O)Nc1ccc(Cn2nc(-c3ccc(Oc4ccccc4)cc3)c3c(N)ncnc32)cc1
- IC50 [1]: 4.8 µM

SMILES: C=CC(=O)Nc1cccc(Cn2nc(C#Cc3c(F)cc4[nH]c(C)nc4c3F)c(C(N)=O)c2NCC)c1
- IC50 [1]: > 10 µM

SMILES: C=CC(=O)Nc1ccc(Cn2nc(C#Cc3c(F)cc4[nH]c(C)nc4c3F)c(C(N)=O)c2N)cc1
- IC50 [1]: 0.13 µM

SMILES: C=CC(=O)N1CC[C@H](n2nc(C#Cc3cc(OC)cc(OC)c3)c3c(N)ncnc32)C1 [FUTIBATINIB]
- IC50 (NCI-H520): 0.014 µM
- IC50 (SNU-16 [6]): 0.00044 µM
- IC50 [7]: 0.004 µM

SMILES: C=CC(=O)Nc1ccc(Cn2nc(C#Cc3ccc4sc(C)nc4c3)c(C(N)=O)c2N)cc1
- IC50 [1]: 0.95 µM

SMILES: C=CC(=O)Nc1ccc(Cn2nc(C#Cc3ccc4oc(C)nc4c3)c(C(N)=O)c2N)cc1
- IC50 [1]: 0.61 µM

SMILES: C=CC(=O)Nc1cccc(Cn2nc(C#Cc3c(F)cc4[nH]c(C)nc4c3F)c(C(N)=O)c2NC)c1
- IC50 [1]: > 10 µM

SMILES: C=CC(=O)Nc1ccc(CCn2nc(C#Cc3cc(OC)cc(OC)c3)c3c(N)ncnc32)cc1
- IC50 [1]: 3.46 µM

SMILES: C=CC(=O)Nc1ccc(Cn2nc(C#Cc3ccc4[nH]c(C)nc4c3)c3c(N)ncnc32)cc1
- IC50 [1]: 0.68 µM

SMILES: C=CC(=O)Nc1ccc(Cn2nc(C#Cc3ccc4[nH]c(C)nc4c3)c(C(N)=O)c2N)cc1
- IC50 [1]: 0.32 µM

SMILES: C=CC(=O)Nc1ccc(Cn2nc(-c3ccc(Oc4nccc(C)n4)c(F)c3)c3c(N)ncnc32)cc1
- IC50 [1]: > 10 µM

SMILES: C=CC(=O)Nc1cccc(Cn2nc(C#Cc3c(F)cc4[nH]c(C)nc4c3F)c(C(N)=O)c2N)c1
- Activity [8]: 0.065%
- half-life at 1 µM [2]: 46.4 min
- viability at 0.1 µM [9]: 82.4%
- inhibition (BaF3 [10]): Dose-Dependent Effect
- Activity [11]: 10.1%
- viability at 0.01 µM [12]: 86.7%
- inhibition [13]: Dose-Dependent Effect
- Activity [14]: 66.4%
- inhibition [15]: Dose-Dependent Effect
- Activity [16]: 7.38%
- Activity (BaF3 [17]): Active
- Activity [18]: 8.85%
- inhibition (SNU-16 [19]): Dose-Dependent Effect
- CLint scaled at 1 µM [4]: 34.5 mL/min/kg
- Activity (BaF3 [20]): Active
- Activity [21]: 59.4%
- Activity [22]: 0.085%
- Activity (KATO III): Dose-Dependent Effect
- IC50 [23]: 0.062 µM
- Activity [24]: 35.7%
- IC50 (NCI-H520): 0.073 µM
- Activity [25]: 25.5%
- IC50 [26]: 0.099 µM
- Activity [27]: 8.53%
- IC50 (BaF3 [28]): 0.087 µM
- Activity [29]: 35.3%
- Activity [30]: 3.33%
- IC50 (SNU-16 [6]): 0.019 µM
- IC50 [7]: 0.059 µM
- IC50 [31]: 0.041 µM
- Activity [32]: 0.27%
- CLhep predicted at 1 µM [5]: 12.9 mL/min/kg
- Activity [33]: 5.84%
- Activity [34]: 12.7%
- viability at 1 µM [35]: 77.1%

SMILES: C=CC(=O)Nc1ccc(Cn2nc(C#Cc3ccc(-c4c[nH]c(C)n4)cc3)c(C(N)=O)c2N)cc1
- IC50 [1]: > 10 µM

SMILES: C=CC(=O)Nc1cccc(Cn2nc(C#Cc3c(F)cc4[nH]c(C)nc4c3F)c(C(N)=O)c2NCCOC)c1
- IC50 [1]: 2.91 µM
